Measurements taken from US20130123618A1, “Imaging Agents” (priority 2008, published 2013).
Where two headings read alike, the source gives them in different places.

What was measured:
tumor lesions = settings: 7 human subjects, PET scanner; cited from earlier work
Morris 51236 hepatomas = settings: cited from earlier work
U87 Human Glioma cells = assay: in vitro amino acid uptake in U87 cells; format: cell-based
Excerpt: (§1) Compounds have been evaluated in vitro for tumor binding specificity (i.e. uptake cells) using a variety of tumor cell lines available in the art, along with reference compounds such as Me-AlB and BCH. Detailed description of these assays can be found in Martarello et al. (2002) Journal of Medicinal Chemistry, 45:2250-2259 and McConathy et al. (2003) Nuclear Medicine and Biology, 30:477-490. These so called “amino acid uptake studies” are typically carried out with radiolabeled compounds in at least five phenotypically different human tumor cell lines (e.g., A549 lung carcinoma, MB468 breast carcinoma, DU145 prostate carcinoma-androgen independent, LnCap-androgen dependent, SKOV3 ovarian carcinoma, U87 glial blastoma, MIA PaCa-2 pancreas carcinoma, MDA MB231 breast carcinoma). These tumor cell lines can be grown either in vitro or in vivo with severe combined immunodeficiency (SCID) mice as a host. The afore-mentioned tumor cell lines are available at the Winship Cancer Institute of Emory University.
(§2) For the in vitro amino acid uptake studies, all cells can be grown to monolayer confluency in T-175 culture flasks [Corning, Corning, N.Y.] (approx. 1×10^8 cells/flask) in Dulbecco's Modified Eagle's Medium (DMEM) [Sigma, St. Louis, Mo.] in a humidified incubator (37° C., 5% CO2/95% air). […]
(§3) In the in vitro studies the uptake rate of each amino acid compound is measured in each tumor line, as well as the dominant transport mechanisms of each tumor cell line. After trypsinization, cells are resuspended in serum-free media, then counted on a hemocytometer, with viability assessed through Trypan blue staining. […] The vials are placed in a Cobra-II gamma counter (Packard, Meriden, Conn.), with the activity per cell number determined. […] Saline washes are performed as described above, and the filtered cells' radioactivity determined on the gamma counter. […]
(§4) The uptake of all compounds were measured in human and rat cancer cell lines and the dominant transport (“A” and “L”) mechanism of each culture were determined. […]

[1] = test system: LnCap Human Prostate carcinoma cells; assay: in vitro amino acid uptake in LnCap cells; format: cell-based
Experimental: (§5) Compounds have been evaluated in vitro for tumor binding specificity (i.e. uptake cells) using a variety of tumor cell lines available in the art, along with reference compounds such as Me-AlB and BCH. Detailed description of these assays can be found in Martarello et al. (2002) Journal of Medicinal Chemistry, 45:2250-2259 and McConathy et al. (2003) Nuclear Medicine and Biology, 30:477-490. […]
as §3, §4

[2] = test system: A549, human lung cancer cells implanted in flanks; assay: tissue distribution in SCID mice bearing A549 tumors; format: in vivo; settings: for tissue distribution, blood / tissue distribution, bone / tissue distribution, brain / tissue distribution, heart / tissue distribution, kidney / tissue distribution, liver / tissue distribution, lung / tissue distribution, muscle / tissue distribution, pancreas / tissue distribution, spleen / tissue distribution, tumor: A549 tumor-bearing SCID mice, tail vein, ave, listed as Anti 2-[^18F]FACPC Enantiomer 2
Experimental: (§6) For the in vitro amino acid uptake studies, all cells can be grown to monolayer confluency in T-175 culture flasks [Corning, Corning, N.Y.] (approx. 1×10^8 cells/flask) in Dulbecco's Modified Eagle's Medium (DMEM) [Sigma, St. Louis, Mo.] in a humidified incubator (37° C., 5% CO2/95% air). Media are supplemented with 10% fetal calf serum [Hyclone, Logan, Utah], and antibiotics (10,000 U/ml penicillin and 10 mg/ml streptomycin) (Sigma, St. Louis, Mo.). For tissue culture passage, monolayer cells are detached by gentle trypsinization, resuspended in complete media, and split 1:10 into new T-flasks. Cultures are passaged weekly, and fed fresh media every 2 to 3 days. To initiate tumor growth in SCID mice, 1×10^6 cells are injected s.c. bilaterally into the flanks (inguinal region) of the recipient animals using a 1 ml syringe with a 27 gauge needle. Ex vivo experiments can be performed with animals containing tumors weighing between 500 mg and 1 g, as estimated by caliper measurement (tumor weight=(π/6)*abc, where a, b and c are the tumor length, width and height, respectively).
(§7) Tissue distribution of the compounds is measured in SCID mice (average weight, 20-25 g) bearing human tumors as follows. The candidate radioligands (20 uCi in 0.4 ml 0.9% NaCl) are injected into the tail vein of tumor-bearing mice. […] Tissues (blood, heart, liver, lungs, kidneys, bone, thyroid, muscle, brain and tumor) are excised, rinsed in saline, and blotted dry. The tissues are weighed, placed into 12×75 mm glass vials, the radioactivity determined with a gamma counter, and the percent dose/gram calculated. Total activities of blood and muscle are calculated by assuming that they account for 7% and 40% of the total body mass, respectively.
(§8) Tables 3-7 show the results of the biodistribution studies with the separate enantiomers of anti-2-[^18F]FACPC and racemic anti-2-[^18F]FACBC as a comparison in SCiD mice implanted in their flanks with A549, human lung cancer cells and DU145, human prostate cancer cells.

9L Rat gliosarcoma cells = assay: in vitro amino acid uptake in 9L cells; format: cell-based
Excerpt: as §1, §2, §3, §4

[3] = test system: MDA MB468 Human Breast carcinoma cells; assay: in vitro amino acid uptake in MDA MB468 cells; format: cell-based
Excerpt: as §1, §2, §3, §4

[4] = test system: MIA PaCa-2 Human Pancreas carcinoma cells; assay: in vitro amino acid uptake in MIA PaCa-2 cells; format: cell-based
Experimental: as §5, §3, §4

[5] = test system: A549 Human Lung adenocarcinoma cells; assay: in vitro amino acid uptake in A549 cells; format: cell-based
Excerpt: as §1, §2, §3, §4

[6] = test system: MDA MB231 Human Breast carcinoma cells; assay: in vitro amino acid uptake in MDA MB231 cells; format: cell-based
Experimental: as §5, §3, §4

[7] = test system: SKOV3 Human Ovarian carcinoma cells; assay: in vitro amino acid uptake in SKOV3 cells; format: cell-based
Excerpt: as §1, §2, §3, §4

tumor cells = assay: overall conclusion of uptake studies in cancer cells in vitro; format: cell-based
Experimental: In the in vitro studies the uptake rate of each amino acid compound is measured in each tumor line, as well as the dominant transport mechanisms of each tumor cell line. After trypsinization, cells are resuspended in serum-free media, then counted on a hemocytometer, with viability assessed through Trypan blue staining. Approximately 1×10^7 cells are exposed to each compound (15 μCi) in 15 ml of amino acid free media for 5, 10, 15, 30 and 60 minutes at 37° C. Cells are then centrifuged at 150×g for 5 minutes, rinsed in 5 ml cold-saline, recentrifuged, resuspended in 3 ml saline, and placed into 12×75 mm glass vials (Fisher, Pittsburgh, Pa.). The vials are placed in a Cobra-II gamma counter (Packard, Meriden, Conn.), with the activity per cell number determined. Inhibition studies determine the dominant transport mechanism (L, A or ASC) for each line [Martarello et al. (2002) supra; McConathy et al. (2003) supra]. For these studies, cells are exposed to the compounds for 30 minutes in amino acid free media containing one of three inhibitors (2-amino-norbornyl-2-carboxylic acid (BCH), 10 mM; α-(methylamino)-isobutyric acid (MeAlB), 10 mM; and an alanine-serine-cysteine mixture 1:1:1 (acs), 10 mM). Saline washes are performed as described above, and the filtered cells' radioactivity determined on the gamma counter. Comparisons with the 30 minute control uptake indicate the major transporters used. Results of these studies are found in FIGS. 1-18.
Approximately 10^6 cells were exposed to the [^18F]amino acid candidate (5 μCi) in 3 ml of amino acid-free media±transporter inhibitors (10 mM) for 30 minutes under incubation conditions by the method previously described (McConathy, J.; Martarello, L.; Malveaux, E.; Camp, V.; Bowers, G.; Olson, J.; Goodman, M. (2002) Radiolabeled amino acids for tumor imaging with PET: radiosynthesis and biological evaluation of [^18F]2-amino-3-fluoro-2-methylpropanoic acid and [^18F]3-fluoro-2-methyl-2-(methylamino)-propanoic acid. J. Med. Chem. 45, 2240-2249). The inhibition studies determined the dominant transport mechanism (L, A) for each candidate PET amino acid for each tumor model. 2-Methylaminoisobutyric acid (MeAlB) and 2-aminobicyclo-[2.2.1]-heptane-2-carboxylic acid (BCH) serve as inhibitors for the “A”, “L” transport systems, respectively.

[8] = test system: DU145 Human Prostate carcinoma cells; assay: in vitro amino acid uptake in DU145 cells; format: cell-based
Excerpt: as §1, §2, §3, §4

[9] = test system: tumor lesions in 33 patients; settings: single photon rectilinear scanner; cited from earlier work
[10] = test system: DU145, human prostate cancer cells implanted in flanks; assay: tissue distribution in SCID mice bearing DU145 tumors; format: in vivo; settings: DU145 tumors, SCID mice, time points sampled post injection
Experimental: as §6, §7, §8

[11] = carbon-14 labeled, rats transplanted with Morris 51236 hepatomas

NC1([11C](=O)O)CCC1 [[^11C]ACBC, 1-aminocyclobutane-1-[^11C]carboxylic acid]
uptake in lesions (tumor lesions): increased uptake was observed in lesions in all subjects

NC1(C(=O)O)CCCC1 [ACPC, 1-amino-cyclopentane-1-carboxylic acid]
tumor uptake (Morris 51236 hepatomas; [11]): 3.6 % dose/g

NC1(C(=O)O)CCC1 [ACBC]
tumor uptake (Morris 51236 hepatomas; rat, in vivo): 4.6 % dose/g

N[C@]1(C(=O)O)CCC[C@@H]1[18F] (single isomer, unassigned; enantiomer 2) [Enantiomer 2, anti-2-[^18F]FACPC]
% Dose uptake per 0.5 × 10−6 Cells (U87 Human Glioma cells): 17 % Dose/0.5 × 10^−6
% Dose uptake per 0.5 × 10−6 Cells [1]: 3.8 % Dose/0.5 × 10^−6
tissue distribution, blood ([2]; 15 min): 3.68 percent dose/gram
tissue distribution, bone ([2]; 15 min): 2.50 percent dose/gram
tissue distribution, brain ([2]; 15 min): 0.53 percent dose/gram
tissue distribution, heart ([2]; 15 min): 3.18 percent dose/gram
tissue distribution, kidney ([2]; 15 min): 10.81 percent dose/gram
tissue distribution, liver ([2]; 15 min): 2.86 percent dose/gram
tissue distribution, lung ([2]; 15 min): 4.75 percent dose/gram
tissue distribution, muscle ([2]; 15 min): 2.07 percent dose/gram
tissue distribution, pancreas ([2]; 15 min): 40.68 percent dose/gram
tissue distribution, spleen ([2]; 15 min): 9.37 percent dose/gram
tissue distribution, tumor ([2]; 15 min): 8.13 percent dose/gram
tissue distribution, blood ([2]; 60 min): 1.17 percent dose/gram
tissue distribution, bone ([2]; 60 min): 1.77 percent dose/gram
tissue distribution, brain ([2]; 60 min): 0.58 percent dose/gram
tissue distribution, heart ([2]; 60 min): 1.82 percent dose/gram
tissue distribution, kidney ([2]; 60 min): 3.73 percent dose/gram
tissue distribution, liver ([2]; 60 min): 1.22 percent dose/gram
tissue distribution, lung ([2]; 60 min): 1.77 percent dose/gram
tissue distribution, muscle ([2]; 60 min): 1.78 percent dose/gram
tissue distribution, pancreas ([2]; 60 min): 16.42 percent dose/gram
tissue distribution, spleen ([2]; 60 min): 2.95 percent dose/gram
tissue distribution, tumor ([2]; 60 min): 5.78 percent dose/gram
% Dose uptake per 0.5 × 10−6 Cells (9L Rat gliosarcoma cells): 7.5 % Dose/0.5 × 10^−6
% Dose uptake per 0.5 × 10−6 Cells [3]: 7.5 % Dose/0.5 × 10^−6
% Dose uptake per 0.5 × 10−6 Cells [4]: 3.8 % Dose/0.5 × 10^−6
% Dose uptake per 0.5 × 10−6 Cells [5]: 9.6 % Dose/0.5 × 10^−6
% Dose uptake per 0.5 × 10−6 Cells [6]: 6.4 % Dose/0.5 × 10^−6
% Dose uptake per 0.5 × 10−6 Cells [7]: 5.5 % Dose/0.5 × 10^−6
selective uptake in tumor cells (tumor cells): selectively taken up in tumor cells
% Dose uptake per 0.5 × 10−6 Cells [8]: 4.7 % Dose/0.5 × 10^−6

NC1(C(=O)O)CC1 [ACPRC, 1-amino-cyclopropane-1-carboxylic acid]
tumor uptake (Morris 51236 hepatomas; [11]): 1.2 % dose/g

NC1([11C](=O)O)CCCC1 [[^11C]ACPC, 1-Aminocyclopentane-1 [^11C]Carboxylic Acid]
uptake in lesions (tumor lesions): increased uptake was observed in lesions in all subjects
lesions with increased uptake [9]: 70%

NC1(C(=O)O)CCCCC1 [ACHC, 1-amino-cyclohexane-1-carboxylic acid]
tumor uptake (Morris 51236 hepatomas; [11]): 0.9 % dose/g

N[C@]1(C(=O)O)CCC[C@@H]1[18F] (mixture of isomers) [Enantiomer 13, (1S,2S) and (1R,2R) anti-1-amino-2-[^18F]fluorocyclopentyl-1-carboxylic acid]
uptake of radioactivity in the tumors compared with muscle ([2]; A549 tumors, SCID mice, time points sampled post injection): greater than muscle
uptake of radioactivity in the tumors compared with muscle [10]: greater than muscle
